The source of these data is a melting point compilation (Tetko et al.).

Consider `CCC=C(c1ccccc1)c1ccccc1`, for which the melting point was -1 °C.

In turn, `O=C1C=C(NCCCCc2ccccc2)C(=O)c2ccccc21` returned a melting point of 137 °C.

On to `Brc1ccc2c(c1)CNCC2`, for which the melting point came out at 34 °C.

In turn, `CNC(N)=S` showed a melting point of 120 °C.

For the compound `COc1ccc(C(=O)c2noc(-c3ccccc3)c2S(=O)(=O)c2ccccc2)cc1`, the melting point amounted to 161 °C.

Regarding `CCNc1nc2c(cc1C(=O)OC)c(=O)oc1ccccc12`, the melting point worked out at 210 °C.

For the compound `CC(=NOCc1cccc(C(=O)O)c1)c1ccc(Cl)cc1`, the melting point fell in the range of 154 to 157 °C.

On to `N#Cc1ccc(S(=O)(=O)C(F)(F)F)cc1`, for which the melting point worked out at 90 °C.

As for `c1ccc2nncnc2c1`, the melting point turned out to be 75.8 °C.

As to `O=C1OCCO1`, the melting point was determined as 39.5 °C.

Consider `CCCCCCCCCCCCCCCC(=O)OCCC`, for which the melting point is 20.4 °C.

Consider `NC(=S)c1ncc(C(F)(F)F)cc1N1CCCC1`, for which the melting point fell in the range of 176 to 180 °C.

Take `O=C=Nc1ccc(F)cc1[N+](=O)[O-]`: the melting point was in the range of 50 to 55 °C.

As for `CC(=O)Oc1c(-c2ccccn2)[nH]c2ccccc12`, the melting point worked out at 130 °C.

The compound `Cc1ccc([N+](=O)[O-])cc1S(=O)(=O)O` registered a melting point of 133 °C.

`Nc1ccc(N=Nc2ccc([N+]([O-])=Nc3ccc(N)cc3)cc2)cc1` had a melting point of 247 °C.

`COC(=O)c1cc(C)[nH]n1`: the melting point was determined as 82 °C.

Regarding `CCC1(C2=CC3CCC(C2)C3)C(=O)NC(=O)NC1=O` (stereo not given), the melting point was 213 °C.

Regarding `CSC(=Nc1nccs1)SC`, the melting point lay within 194 to 195 °C.

Turning to `c1ccc(N2CCNCC2)cc1`, the melting point was 18.8 °C.

`Nc1cccc(CN2CCOCC2)c1` had a melting point of 73 to 75 °C.

Compound `Nc1cccc(Oc2ccccn2)c1` displayed a melting point of 76 to 78 °C.

Compound `CC12CCC(/C(=C/Nc3ccc(Cl)cc3)C1=O)C2(C)C` (stereo not given) showed a melting point of 167 to 169 °C.

The compound `Brc1ccc(OC2CCOCC2)nc1` registered a melting point of 96 to 98 °C.

Take `Cc1ccc(C#N)cn1`: the melting point stood at 85 °C.

Turning to `FC(F)(F)C(F)(F)C(F)(F)C(F)(F)OC(F)(F)C(F)(F)C(F)(F)C(F)(F)F`, the melting point is -100 °C.

Turning to `CC(C)OC=O`, the melting point is -80 °C.

`CSc1nc(Cl)c(-c2ccccc2)c(Cl)n1` registered a melting point of 114 °C.

Compound `O=C(O)c1nsc(Cl)c1Cl` showed a melting point of 169 °C.

As to `C#CCC`, the melting point is -126 °C.

On to `O=C(c1cccs1)c1noc(-c2ccc([N+](=O)[O-])cc2)c1S(=O)(=O)c1ccccc1`, for which the melting point was found to be 139 °C.

As to `Brc1cccc2cnccc12`, the melting point was found to be 82 °C.

As to `O=C(CNc1ccccc1)c1ccc(C(=O)CNc2ccccc2)cc1`, the melting point is more than 200 °C.

Compound `COc1ccc(F)c(C#N)c1` showed a melting point of 83 °C.

As to `N#CCCNCC(=O)O`, the melting point lay in the range of 188 to 193 °C.

As for `N#Cc1cccc(C(N)=O)c1`, the melting point turned out to be 223 °C.

The compound `CC(=O)OC1CCC2(C)C(=CC(=O)C3C4CCC(=O)C4(C)CCC32)C1` (stereo not given) yielded a melting point of 182 °C.

Take `CC1(C)C2CCC(O2)C(Cl)C1O` (stereo not given): the melting point lay within 71 to 72 °C.

Take `COc1cc(Br)c(CC#N)cc1OC`: the melting point lay within 87 to 89 °C.

Compound `COC(=O)c1cc(Br)cc(C(=O)OC)c1` yielded a melting point of 89 to 91 °C.

In turn, `O=C(CCCN1CCC(O)(c2ccc(Cl)cc2)CC1)c1ccc(F)cc1` gave a melting point of 148 °C.

`CCOC(=O)Oc1c(-c2ccccc2)[nH]c2cc([N+](=O)[O-])ccc12` returned a melting point of 170 °C.

Turning to `Ic1cccc(I)c1I`, the melting point was determined as 116 °C.

On to `O=C(O)c1cc(-c2cccs2)on1`, for which the melting point is 168 °C.

`O=C(O)Cc1c[nH]c2ccccc12` showed a melting point of 169 °C.

In the case of `NNc1cc(Cl)c(C(F)(F)F)cc1[N+](=O)[O-]`, the melting point lay within 140 to 145 °C.

Take `CC(NC(=O)COC(=O)c1ccccc1)C(N)=O` (stereo not given): the melting point was 202 °C.

In turn, `O=[N+]([O-])c1ccc(SCCO)cc1` displayed a melting point of 60 to 61 °C.

Compound `COc1ccccc1NC(=S)NN` showed a melting point of 151 to 153 °C.

As for `FC(F)(F)c1cc(Br)c2nc[nH]c2c1`, the melting point fell in the range of 218 to 220 °C.

Turning to `C/C=C/C(=O)O`, the melting point came out at 72 °C.

Compound `O=C1CCc2ccccc2O1` yielded a melting point of 25 °C.

In turn, `CC(C)(C)OC(=O)N1CCC(O)CC1` had a melting point of 63 °C.

`Cc1cc(CO)c(-c2ccccc2)o1` displayed a melting point of 56 to 59 °C.

On to `Cc1ccc(C(=O)C2=NN(c3ccccc3)C3C(=O)N(c4cccc([N+](=O)[O-])c4)C(=O)C23)cc1` (stereo not given), for which the melting point is 176 °C.

The compound `Cc1cccc(C)c1NC(=O)C1C2C=CC(C2)C1C(=O)O` (stereo not given) registered a melting point of 167 °C.

In turn, `N#Cc1ccc2c(c1)OCCO2` showed a melting point of 104 to 106 °C.

In turn, `CCCCCCCC(N)=O` gave a melting point of 108 °C.

In turn, `CC12CCC(C1(C)C)C(CCCc1ccccc1)(C1(CCCc3ccccc3)C(=O)C3(C)CCC1C3(C)C)C2=O` (stereo not given) showed a melting point of 250 °C.

`O=C(Cl)c1ccsc1Br` came in with a melting point of 61 to 62 °C.

`Cc1c(C(=O)O)sc2c1CCCC2` showed a melting point of 218 °C.

`CC(=O)c1ccc(C)c(C)c1`: the melting point is -3 °C.

In the case of `COc1ccc2c(c1)CCC1C2CCC2(C)C(O)C(O)CC12` (stereo not given), the melting point turned out to be 159 °C.

`Clc1cc(Cl)cc(C2(CC(Cl)(Cl)Cl)CO2)c1` (stereo not given) registered a melting point of 42.8 °C.

The compound `Cc1sc(-c2ccncc2)nc1-c1ccccc1` displayed a melting point of 84 °C.

`N#Cc1cccc(N=C=O)c1` displayed a melting point of 53 °C.

Compound `CN(C)C(=O)COC1CCN(C(=O)OC(C)(C)C)CC1` registered a melting point of 58 °C.

The compound `COc1ccc(/N=N/c2c(N)nn3c(C(F)(F)F)cc(C)nc23)cc1` had a melting point of 158 °C.

Consider `Nc1ccc(-n2cncn2)cc1`, for which the melting point was 142 to 144 °C.

`O=c1ccnc2n(-c3ccccc3)[nH]cc1-2` yielded a melting point of 167 °C.

`O=C(O)c1cccc2cccc(C(=O)O)c12` registered a melting point of 260 °C.

Compound `CCCC(C)(N)P(=O)(O)O` (stereo not given) gave a melting point of 258 to 262 °C.

As to `O=C(O)CCC(F)(F)C(F)(F)C(F)(F)C(F)(F)C(F)(F)C(F)(F)F`, the melting point was in the range of 62 to 64 °C.

As for `NC(=O)c1sc(NCc2ccccc2)nc1N`, the melting point fell in the range of 196 to 198 °C.

`COC(=O)CCC(C)C1CCC2C3C(O)C(O)C4CC(OC(C)=O)CCC4(C)C3CC(OC(C)=O)C12C` (stereo not given) displayed a melting point of 175 to 177 °C.

In the case of `CC(C)(C#N)OC1OC(CO)C(O)C(O)C1O` (stereo not given), the melting point was found to be 145 °C.

`CCn1nc(C)c(Br)c1C(=O)O` showed a melting point of 158 to 162 °C.

In the case of `N=C1NC(=O)CS1`, the melting point was found to be 249 °C.

Regarding `CN(C)CCOC1=Cc2ccccc2Sc2ccc(Cl)cc21`, the melting point was 90 °C.

With `C[C@H](CCC(=O)O)[C@H]1CC[C@H]2[C@@H]3CC[C@H]4CC(=O)CC[C@]4(C)[C@H]3CC[C@]12C`, the melting point was 189 °C.

In turn, `COC(=O)c1c(C)c2c(c(C(=O)OC)c1C)CC2=O` displayed a melting point of 117 °C.

The compound `Brc1cccc(-n2cccc2)c1` came in with a melting point of 63 to 64 °C.

`C/C=C/c1ccccc1C(=O)O` returned a melting point of 81 to 86 °C.

Turning to `CCOC(=O)c1c(NC(=S)NCc2ccccc2)sc2c1CCCC2`, the melting point was 125 to 127 °C.

As to `O=c1oc2ccccc2cc1O`, the melting point amounted to 154 °C.

Regarding `O=C1c2ccccc2C(=O)N1CCOCCO`, the melting point is 64 °C.

In turn, `O=C(O)C[C@H](C(=O)O)c1ccccc1` displayed a melting point of 173 to 176 °C.

As for `Nc1c(F)cc(Br)cc1F`, the melting point lay in the range of 67 to 68 °C.

Compound `Cc1onc2c(-c3ccc(Cl)cc3)nnc(-c3ccccc3)c12` showed a melting point of 171 °C.

As for `COc1ccc(C=Cc2ccc(OC)cc2)cc1`, the melting point stood at 214 °C.

As for `O=C1OC(c2ccccc2)Cc2ccccc21` (stereo not given), the melting point lay within 88 to 90 °C.

`CCCCCCCCCC(C)C`: the melting point was -47 °C.

With `S=C1NC(=S)C(c2ccccc2)(c2ccccc2)N1`, the melting point was determined as 263 °C.

For `O=C(O)/C=C/c1cc2c(cc1CC(=O)O)NC(=O)CC2`, the melting point stood at 234 °C.

With `OCC1OC(n2cnc3c2N=CNCC3O)CC1O` (stereo not given), the melting point came to 220 °C.

`NNC(=O)Cc1ccccc1` showed a melting point of 115 to 117 °C.

The compound `O=C1CC(c2ccccc2)Oc2cc(O)ccc21` (stereo not given) showed a melting point of 188 °C.

`CCC(C)[C@@H]1NC(=O)OC1=O` (stereo not given in full) came in with a melting point of 66 °C.

`Cc1cccc(NC(=O)c2cncc(Cl)n2)c1` gave a melting point of 84 °C.

In turn, `Cc1ccc2ccc(C)nc2c1` displayed a melting point of 61 °C.

`Cc1cc(C)c2c(=O)n(C)c(S)nc2n1` had a melting point of 234 to 236 °C.

For the compound `OC1C(Cl)(Cl)CCCC1(Cl)Cl`, the melting point was 55 °C.

Compound `COC1=CC(=O)OC(C=Cc2ccccc2)C1` (stereo not given) gave a melting point of 106 °C.

On to `Sc1c(Cl)cccc1Cl`, for which the melting point lay within 45 to 50 °C.

In the case of `Cc1nn(-c2ccccc2)nc1C(=O)N1CCCC1`, the melting point lay within 89 to 90 °C.

`C=CC=CC(=O)O` returned a melting point of 79 °C.

With `O=[N+]([O-])c1ccc(Cl)c(CO)c1`, the melting point was in the range of 77 to 78 °C.

Regarding `CC1(c2ccccc2)CCOCO1` (stereo not given), the melting point amounted to 37.5 °C.

For the compound `Brc1cnc(N2CCNCC2)nc1`, the melting point was in the range of 77 to 79 °C.

In turn, `N#Cc1cc(F)c(F)cc1Cl` gave a melting point of 35 °C.

Consider `N[C@@H]1CC[C@H](C(=O)O)C1`, for which the melting point was 192 °C.

With `Cc1ccc(C#N)c(F)c1`, the melting point came to 53 °C.

In the case of `CC(C)(C)C(=O)OCC(N)=S`, the melting point fell in the range of 84 to 85 °C.

`CCC(CC)COC(=O)CCCCCCCC(=O)OCC(CC)CC` came in with a melting point of -45 °C.

For the compound `O=[N+]([O-])c1ccc(NN=C(Cc2ccccc2)C(O)Cc2ccccc2)cc1` (stereo not given), the melting point was determined as 122 °C.
